Data taken from ChEMBL document CHEMBL4842322, “A naphthalimide-polyamine conjugate preferentially accumulates in hepatic carcinoma metastases as a lysosome-targeted antimetastatic agent” (Eur J Med Chem, 2021).

Experiments:
Assay type in all cases: functional, cell-based
[1] = test system: HepG2; assay: Cytotoxicity against human HepG2 cells assessed as inhibition of cell growth incubated for 48 hrs by MTT assay; conditions: HepG2, 48 h
[2] = test system: Huh-7; assay: Cytotoxicity against human Huh-7 cells assessed as inhibition of cell growth incubated for 48 hrs by MTT assay; conditions: Huh-7, 48 h
[3] = test system: MDA-MB-231; assay: Cytotoxicity against human MDA-MB-231 cells assessed as inhibition of cell growth incubated for 48 hrs by MTT assay; conditions: MDA-MB-231, 48 h
[4] = test system: MCF7; assay: Cytotoxicity against human MCF7 cells assessed as inhibition of cell growth incubated for 48 hrs by MTT assay; conditions: MCF7, 48 h
[5] = test system: A549; assay: Cytotoxicity against human A549 cells assessed as inhibition of cell growth incubated for 48 hrs by MTT assay; conditions: A549, 48 h
[6] = test system: A549; assay: Cytotoxicity against cisplatin-resistant human A549 cells assessed as inhibition of cell growth incubated for 48 hrs by MTT assay; conditions: A549, 48 h

SMILES	IC50 [1] [µM]	IC50 [2] [µM]	IC50 [3] [µM]	IC50 [4] [µM]	IC50 [5] [µM]	IC50 [6] [µM]
CCCNCCCNCCCNCCCN1C(=O)c2cccc3c(NC(=O)CN)ccc(c23)C1=O	> 30	5.39	> 30	> 30	> 30	> 30
NCCCCNCCCN1C(=O)c2cccc3cc(NC(=O)CN)cc(c23)C1=O	> 30	> 30	> 30	> 30	> 30	> 30
NCCCCNCCCCN1C(=O)c2cccc3c(NC(=O)CN)ccc(c23)C1=O	> 30	22.9	> 30	> 30	> 30	> 30
CN(C)CCN1C(=O)c2cccc3cc(NC(=O)CN)cc(c23)C1=O	> 30	12.7	> 30	> 30	> 30	> 30
CCCNCCCNCCCN1C(=O)c2cccc3cc(NC(=O)CN)cc(c23)C1=O	> 30	7.54	> 30	> 30	> 30	> 30
